# Assay results from US10287267B2, “Isoquinolin-3-yl carboxamides and preparation and use thereof” (Samumed, LLC, priority 2016, dated 2019).
# Experiments:
# [1] = test system: Wnt pathway (Sp5-Luc reporter, TCF/LEF binding sites) in SW480 colon carcinoma cells; experiment: Screening assay for Wnt activity: Sp5-Luc reporter gene assay; assay type: cell-based, human; conditions: Homo sapiens; Sp5-Luc reporter, SW480 cells, 36 to 48 hours;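 note: firefly luciferase luminescence read in stably transduced SW480 cells carrying the Sp5 promoter reporter with eight TCF/LEF sites, compounds given in 0.1% DMSO final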
# Procedure: The screening assay for Wnt activity is described as follows.
# Following incubation, 15 μl of BriteLite Plus luminescence reagent (Perkin Elmer) was added to each well of the 384-well assay plates. The plates were placed on an orbital shaker for 2 min and then luminescence was quantified using the Envision (Perkin Elmer) plate reader.
# [2] = target: recombinant DYRK1A kinase (Homo sapiens (Human), UniProt Q13627); experiment: DYRK1A kinase assay (Ser/Thr 18 peptide Z-lyte FRET); assay type: biochemical; conditions: 30 μM ATP, 1 h room temperature;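 note: Read-out is the coumarin to fluorescein emission ratio, referenced to unphosphorylated (0%) and phosphorylated (100%) Ser/Thr 18 peptide controls, values from dose-response curves by non-linear regression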
# [3] = target: recombinant GSK3β kinase (Homo sapiens (Human), UniProt P49841); experiment: GSK3β kinase assay (Ser/Thr 09 peptide Z-lyte FRET); assay type: biochemical; conditions: 46 μM ATP, 1 h room temperature;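 note: kinase activity read as coumarin to fluorescein emission ratio, 11-point threefold dilutions from 10 µM to 0.0003 µM in duplicate, unphosphorylated and phosphorylated peptide as 0% and 100% controls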
# [4] = test system: Tau phosphorylation at Ser396 (pSer396); experiment: Tau phosphorylation assay (pSer396 ELISA / western blot) in SH-SY5Y cells; assay type: cell-based, human; conditions: Homo sapiens; SH-SY5Y cells, overnight (16-18 h) exposure; read-out: pSer396 Tau EC50;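 note: EC50 for reduction of Tau pSer396 in lysed cells, measured by colorimetric ELISA or chemiluminescent western blot, both using the same pSer396 antibody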
# [5] = test system: secreted β-amyloid 40 (Aβ40) peptide; experiment: Secreted β-amyloid 40 (Aβ40) peptide in APP overexpressing SH-SY5Y-APP cells; assay type: cell-based; conditions: Homo sapiens, overnight (16-18 hours)
# Procedure: Representative compounds were screened using the cell-based assay procedure for secreted β-amyloid 40 (Aβ40) peptide in an APP overexpressing cell line described below.
# SH-SY5Y cells were infected with lentivirus to overexpress amyloid (A4) beta precursor protein (APP), hereafter referred to as the SH-SY5Y-APP cells.
# SH-SY5Y cells were seeded onto 6-well plates at
# The cell assay procedure start 18 h prior to treatment, as SH-SY5Y-APP cells were seeded onto 96-well plates at
# At this time, designated wells were seeded with SH-SY5Y cells that were seeded and treated with puromycin at
# Cells were exposed overnight (16-18 hours) in a 37° C. incubator before supernatant was harvested. […] The original plates with seeded cells were tested for cytotoxicity by measure of adenosine triphosphate (ATP) release by adding CellTiter-Glo® diluted 1:4 in distilled water (G7573, Promega) and transferring lysed cells to a completely black 96-well plate to be read with the Cytation3. Plates containing supernatant were spun down at 1200 g for 10 minutes to remove any cellular debris. Supernatant was then diluted 1:2 with a diluent from V-PLEX Aβ40 Peptide (6E10) Kit and directly tested for secreted Aβ40 peptide (K150SKE, Meso Scale Discovery).
# [6] = test system: SW480 colon carcinoma cells; experiment: Cell viability assay (CellTiter-Glo); assay type: cell-based, human; conditions: Homo sapiens; for EC50: 96 h, SW480 cells, CellTiter-Glo, four days incubation
# [7] = test system: α-smooth muscle actin (αSMA) positive LL29 cells; experiment: Inhibition of fibrotic process: αSMA in TGF-β1 treated primary human fibroblasts from IPF patients; assay type: cell-based; conditions: Homo sapiens, Fibroblast; for EC50: 96 h, Table 8, LL29 fibroblasts from IPF patients, TGF-β1 20 ng/mL, 4 days, dose-response 10 μM to 0.94 nM;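 for all read-outs here: controls were TGF-β1 stimulated wells with DMSO vehicle (positive) and cells given DMSO alone (negative), cultured in F12 medium with 1% fetal bovine serum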
# [8] = test system: IL-6; experiment: IL-6 inhibition in LPS-stimulated human peripheral blood mononuclear cells (HTRF); assay type: cell-based; conditions: Homo sapiens, PBMC; for EC50: Table 9, huPBMCs, LPS 50 ng/mL, 22 hours, dose-response starting from 10 μM; for inhibition at 10 µM: read-out: percent value in parentheses beside EC50 >10 μM;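 for all read-outs here: IL-6 detected by HTRF with an XL665- and Cryptate-labelled anti-IL-6 antibody pair, samples run in duplicate, EC50 obtained from a four-parameter Levenberg-Marquardt curve fit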
# Procedure: After 22 hour incubation, a mixture of anti-IL6 XL665 and anti-IL-6 Cryptate diluted in reconstitution buffer (Catalog #62IL6PEC, Cisbio Inc., Bedford, Mass.) was added to each well. […] All samples were processed in duplicate. […] EC50 was determined using software generated by Dotmatics Limited (Windhill Bishops Stortford Herts, UK) using the Levenberg-Marquardt 4 parameter fitting procedure with finite different gradients.
# [9] = test system: TNFα; experiment: Secreted cytokines in lipopolysaccharide-stimulated BV-2 mouse microglial cells: TNFα; assay type: cell-based; conditions: BV-2 cells, compounds overnight, LPS 250 ng/mL 5 h
# Procedure: (§1) Representative compounds were screened using the cell-based assay procedure for secreted cytokines in a Lipopolysaccharide-stimulated mouse glial cell line described below.
# (§2) BV-2 cells (mouse microglial cells) were cultured in 1:1 DMEM medium supplemented with 10% FBS, and 1% penicillin/streptomycin.
# (§3) BV-2 cells are plated at 35,000 cells/well in a volume of 100 ul for at least 4 hours before compounds are added. DMSO-resuspended compounds were first dispensed in a 96 well plate and serial diluted from 10 μM to 4.6 nM final concentration in medium. Compounds were added to cells overnight. Two hundred fifty ng per milliliter of lipopolysaccharide (Escherichia coli O55:B5, SIGMA) was added for 5 h. Supernatant is removed and saved for further cytokine detection. The original plates with seeded cells were tested for cytotoxicity by measure of adenosine triphosphate (ATP) release by adding CellTiter-Glo® diluted 1:4 in distilled water (G7573, Promega) and transferring lysed cells to a completely black 96-well plate to be read with the Cytation3. Supernatant was then diluted 1:2 with a diluent from V-PLEX cytokine Kit and directly tested for the secreted cytokines TNFα, IL-6 and KC-GRO using electrochemiluminescence (Meso Scale Discovery). The standard curve for each cytokine was used to convert the electrochemiluminescent signal into pg of protein per mL.
# [10] = test system: IL-6; experiment: Secreted cytokines in lipopolysaccharide-stimulated BV-2 mouse microglial cells: IL-6; assay type: cell-based; conditions: Mus musculus; BV-2 cells, compounds overnight, LPS 250 ng/mL 5 h
# Procedure: as §1, §2, §3
# [11] = test system: KC-GRO; experiment: Secreted cytokines in lipopolysaccharide-stimulated BV-2 mouse microglial cells: KC-GRO; assay type: cell-based; conditions: BV-2 cells, compounds overnight, LPS 250 ng/mL 5 h
# Procedure: as §1, §2, §3
# recombinant GSK3β kinase, sequence (P49841 whole entry): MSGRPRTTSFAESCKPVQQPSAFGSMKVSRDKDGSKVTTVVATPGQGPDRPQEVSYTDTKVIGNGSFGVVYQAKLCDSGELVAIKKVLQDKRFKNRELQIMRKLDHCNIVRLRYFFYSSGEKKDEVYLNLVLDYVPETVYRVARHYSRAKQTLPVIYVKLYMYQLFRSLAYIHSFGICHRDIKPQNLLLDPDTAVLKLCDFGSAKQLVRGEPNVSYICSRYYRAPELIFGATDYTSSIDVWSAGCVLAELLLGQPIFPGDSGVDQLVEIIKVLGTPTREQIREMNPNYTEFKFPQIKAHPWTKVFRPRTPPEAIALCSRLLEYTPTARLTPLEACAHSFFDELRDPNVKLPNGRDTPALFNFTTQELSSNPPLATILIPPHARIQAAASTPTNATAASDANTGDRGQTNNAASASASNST
structure (smiles),measurement,setting,value
"Cn1cc(-c2ccc3cnc(NC(=O)C4CCN(CCF)CC4)cc3c2)cn1 [Compound 81, 1-(2-Fluoroethyl)-N-(6-(1-methyl-1H-pyrazol-4-yl)isoquinolin-3-yl) piperidine-4-carboxamide]",EC50,[1],735 nM
same,EC50,[2],1.5 nM
same,EC50,[3],30 nM
same,EC50,[4],452 nM
same,IC50,[5],2300 nM
same,EC50,[6],949 nM
same,EC50,[7],104 nM
same,EC50,[8],395 nM
same,EC50,[9],> 10000 nM
same,EC50,[10],30 nM
"Cn1cncc1-c1ccc2cnc(NC(=O)C3CCN(CCC(F)(F)F)CC3)cc2c1 [Compound 262, N-(6-(1-Methyl-1H-imidazol-5-yl)isoquinolin-3-yl)-1-(3,3,3-trifluoropropyl) piperidine-4-carboxamide]",EC50,[1],1700 nM
same,EC50,[2],1.5 nM
same,EC50,[3],24 nM
same,EC50,[4],174 nM
same,IC50,[5],2200 nM
same,EC50,[6],1390 nM
same,EC50,[7],43 nM
same,EC50,[8],1090 nM
same,EC50,[9],3200 nM
same,EC50,[10],1500 nM
"CN1CC2(CC(C(=O)Nc3cc4cc(-c5cnn(C)c5)ccc4cn3)C2)C1 [Compound 324, 2-Methyl-N-(6-(1-methyl-1H-pyrazol-4-yl)isoquinolin-3-yl)-2-azaspiro[3.3] heptane-6-carboxamide]",EC50,[1],145 nM
same,EC50,[2],2.1 nM
same,EC50,[3],30 nM
same,EC50,[4],180 nM
same,EC50,[6],266 nM
same,EC50,[7],68 nM
same,EC50,[8],321 nM
same,EC50,[9],33 nM
same,EC50,[10],20 nM
"Cn1cc(-c2ccc3cnc(NC(=O)CN4CCOCC4)cc3c2)cn1 [Compound 338, N-(6-(1-Methyl-1H-pyrazol-4-yl)isoquinolin-3-yl)-2-morpholinoacetamide]",EC50,[1],7370 nM
same,EC50,[2],6.2 nM
same,EC50,[3],67 nM
same,EC50,[4],1700 nM
same,EC50,[6],9330 nM
same,EC50,[7],643 nM
same,EC50,[8],4460 nM
same,EC50,[9],724 nM
same,EC50,[10],144 nM
"CN1CCN(CC(=O)Nc2cc3cc(-c4cn(C)nn4)ccc3cn2)CC1 [Compound 500, N-(6-(1-Methyl-1H-1,2,3-triazol-4-yl)isoquinolin-3-yl)-2-(4-methylpiperazin-1-yl)acetamide]",EC50,[1],3230 nM
same,EC50,[2],10.6 nM
same,EC50,[3],23 nM
same,EC50,[4],388 nM
same,EC50,[6],> 10000 nM
same,inhibition at 10 µM,"[6]; SW480, read-out: percent inhibition at 10 μM",25.1%
same,EC50,[7],675 nM
same,inhibition at 10 µM,[8],4%
same,EC50,[8],> 10000 nM
same,EC50,[9],1200 nM
same,EC50,[10],34 nM
same,EC50,[11],7 nM
"CN1CCC(C(=O)Nc2cc3cc(-c4cnn(C)c4)c(F)cc3cn2)CC1 [Compound 966, N-(7-Fluoro-6-(1-methyl-1H-pyrazol-4-yl)isoquinolin-3-yl)-1-methylpiperidine-4-carboxamide]",EC50,[1],1590 nM
same,EC50,[2],2 nM
same,EC50,[3],32 nM
same,EC50,[4],236 nM
same,EC50,[6],259 nM
same,EC50,[7],14 nM
same,EC50,[9],60 nM
same,EC50,[10],22 nM
same,EC50,[11],71 nM
"Cn1cc(-c2ccc3cnc(NC(=O)C4CCN(CC(C)(C)O)CC4)cc3c2)cn1 [Compound 1006, 1-(2-Hydroxy-2-methylpropyl)-N-(6-(1-methyl-1H-pyrazol-4-yl)isoquinolin-3-yl)piperidine-4-carboxamide]",EC50,[1],704 nM
same,EC50,[2],3 nM
same,EC50,[3],50 nM
same,EC50,[4],296 nM
same,EC50,[6],584 nM
same,EC50,[7],61 nM
same,EC50,[8],1130 nM
same,EC50,[9],24 nM
same,EC50,[10],11 nM
same,EC50,[11],27 nM
"Cc1ncc(-c2ccc3cnc(NC(=O)[C@H]4CC[C@H](N(C)C)CC4)cc3c2)o1 [Compound 1017, trans-4-(dimethylamino)-N-(6-(2-methyloxazol-5-yl)isoquinolin-3-yl)cyclohexane-1-carboxamide]",EC50,[1],621 nM
same,EC50,[2],3.1 nM
same,EC50,[3],76 nM
same,EC50,[4],320 nM
same,EC50,[6],659 nM
same,EC50,[7],97 nM
same,EC50,[8],655 nM
same,EC50,[9],29 nM
same,EC50,[10],24 nM
same,EC50,[11],22 nM
"Cc1nnc(-c2ccc3cnc(NC(=O)C4CCN(CC(C)C)CC4)cc3c2)o1 [Compound 1020, 1-Isobutyl-N-(6-(5-methyl-1,3,4-oxadiazol-2-yl)isoquinolin-3-yl)piperidine-4-carboxamide]",EC50,[1],1140 nM
same,EC50,[2],10.4 nM
same,EC50,[3],13 nM
same,EC50,[4],49 nM
same,EC50,[6],1030 nM
same,EC50,[7],> 10000 nM
same,inhibition at 10 µM,[7]; read-out: percent value in parentheses beside EC50 >10 μM,30.6%
same,EC50,[8],1180 nM
same,EC50,[9],597 nM
same,EC50,[10],87 nM
same,EC50,[11],708 nM
"Cc1ncc(-c2ccc3cnc(NC(=O)[C@H]4CC[C@H](N5CCOCC5)CC4)cc3c2)o1 [Compound 1064, trans-N-(6-(2-methyloxazol-5-yl)isoquinolin-3-yl)-4-morpholinocyclohexane-1-carboxamide]",EC50,[1],4120 nM
same,EC50,[2],6.7 nM
same,EC50,[3],126 nM
same,EC50,[4],109 nM
same,EC50,[6],4850 nM
same,EC50,[8],3500 nM
same,EC50,[9],30 nM
same,EC50,[10],6 nM
same,EC50,[11],14 nM
"CN1CCC(C(=O)Nc2cc3cc(-c4nnc(N(C)C)o4)ccc3cn2)CC1 [Compound 1076, N-(6-(5-(dimethylamino)-1,3,4-oxadiazol-2-yl)isoquinolin-3-yl)-1-methylpiperidine-4-carboxamide]",EC50,[1],640 nM
same,EC50,[2],8.4 nM
same,EC50,[3],11 nM
same,EC50,[4],41 nM
same,EC50,[6],1580 nM
same,inhibition at 10 µM,[8],3%
same,EC50,[8],> 10000 nM
same,EC50,[9],1800 nM
same,EC50,[10],8 nM
same,EC50,[11],291 nM
